Test results published in ChEMBL document CHEMBL3507680, “University of Dundee, Gates Library screen for HepG2 cell viability”.

Assay: Human HepG2 cell viability assay in 384 well format
Type: toxicity, cell-based
Design: dose 125 nL, time 70.5 hour; concentration not given beside the values
Settings: HepG2 cells, read-out: Inhibition

Compound | cytotoxicity at 70.5 h [%]
O=C(Nc1ccc2c(ccn2CCN2CCOCC2)c1)c1ccncc1 | -1.62
CC(C)C1CCCN1CC(=O)NCc1ccc(OCC(N)=O)cc1 (stereo not given) | 2.47
NC(=O)CNC1(c2ccc(Br)cc2)CCOCC1 | 22.4
COC1CCN(CC(=O)NCc2ccc(OCC(N)=O)cc2)CC1 | 0.0627
Cc1nn(C)c(N2CCCN(C)CC2)c1CNC(=O)CC(C)(C)C | 3.8
CCC(CC)C(=O)NCc1c(C)nn(C)c1N1CCCN(C)CC1 | 22.5
Cc1nn(C)c(N2CCCN(C)CC2)c1CNC(=O)CC1CCCC1 | 0.191
COC(=O)C1CCCN1CC(=O)NCc1ccc(OCC(N)=O)cc1 (stereo not given) | 4.54
O=C(CNC1(c2ccc(Cl)cc2)CCOCC1)NC1CCCC1 | 1.78
O=C1CN(c2ccc(CNC(=O)Nc3nccs3)cc2)CCN1 | 1.2
Cc1nc(N2CCN(C(=O)CC3CCCC3)CC2)c2cnn(C)c2n1 | 0.786
CC(Nc1cccc2c1OCCO2)C(=O)Nc1ccc(Cl)cc1 (stereo not given) | 2.81
Cc1nn(C)c(Cl)c1C1CCCN1CC(=O)NC1CCCC1 (stereo not given) | 2.37
CCNC(=O)NCC1(CN2CCOCC2)CCCCC1 | 0.842
COC(=O)N1CCC(Nc2ccc(Cl)c(C#N)n2)C1 (stereo not given) | -2.14
Cc1nn(C)cc1C(=O)NCc1cc(N(C)C)nc2ccccc12 | -0.83
O=C(COC1CCCC1)NCCc1noc(-c2ccccn2)n1 | -5.96
CCN(C)C(=O)NCC1(CN2CCOCC2)CCCCC1 | -4.49
CCOCCC1(CNC(=O)c2ccsc2)CCC1 | -5.98
Cc1nn(C)c(Cl)c1C1CCCN1CC(=O)N1CCOCC1 (stereo not given) | 1.93
CC1CCC(NC(=O)CNC2(c3ccc(F)cc3)CCOCC2)CC1 (stereo not given) | -3.54
Cc1nn(C)c(C)c1CC(=O)N1CCCC(CNS(C)(=O)=O)C1 (stereo not given) | -0.898

Compound | cytotoxicity at 70.5 h [%]
CC(Cn1cccn1)C(=O)N1CCCN(Cc2cscn2)CC1 (stereo not given) | -0.68
O=C(c1ccoc1)N(Cc1ccccn1)C1CC1 | -14.2
COC(=O)c1cc(OC)ccc1NCC(=O)NCC(=O)N1CCCC1 | -17.6
NC(=O)C1CCN(CCc2ccc(NCc3cscn3)cc2)CC1 | -12.5
Cc1cc(CCCC(=O)NC2CCN(C)C2=O)c(C)s1 (stereo not given) | -9.64
CN(C)C(=O)C1CCCN1c1ccnc2ccsc12 (stereo not given) | -7.45
CC(NCCN1CCN(C(=O)C2CCCC2)CC1)c1ccccn1 (stereo not given) | -2.99
NCc1csc(CCc2ccccc2)n1 | -8.04
CC(c1cccc(O)c1)N(C)S(=O)(=O)c1cccnc1 (stereo not given) | 4.03
CN(C)C(=O)c1cc(S(=O)(=O)N2CCCC2Cn2ccnc2)cn1C (stereo not given) | 2.99
Cc1ccc(C(N)c2cccs2)cc1 (stereo not given) | 31.8
COC(=O)c1ccc(CNC(=O)Nc2ccc(=O)n(C)c2)cc1 | -2.19
CN(Cc1ccsc1)C(=O)Nc1ccc(=O)n(C)c1 | -6.48
Cc1nn(C(C)C)c(C)c1S(=O)(=O)Nc1cccc(C(=O)O)c1 | -5.93
Cc1nn(C(C)C)c(C)c1S(=O)(=O)Nc1cccc(F)c1 | -0.473
O=C(NS(=O)(=O)c1ccc2c(c1)CCC2)C1COCCO1 (stereo not given) | 26.8
CSc1ccsc1C(=O)NC(C)c1ccc2c(c1)CCC(=O)N2 (stereo not given) | 11.2
CCCNC(=O)c1cc(Br)cc(S(=O)(=O)N2CCOCC2)c1F | -0.419
Cn1cc(NC(=O)c2cccc(Cl)c2)c(=O)n(C)c1=O | 24
Cc1nn(C(C)C)c(C)c1S(=O)(=O)Nc1ccc(C(=O)O)cc1 | -1.04
O=S(=O)(NCC1COCCO1)c1ccc(C2CCCCC2)cc1 (stereo not given) | -4.34
CCn1cc(S(=O)(=O)NC(CO)Cc2ccccc2)cn1 (stereo not given) | -7.27

Compound | cytotoxicity at 70.5 h [%]
O=S1(=O)CCC(n2cc(CNc3ccccc3Br)cn2)C1 (stereo not given) | 31.4
Cc1cc2cc(CNC3CCN(CC(=O)N(C)C)CC3)oc2cc1C | -3.5
OC(COCc1ccccc1)CSc1nnc(C2CC2)n1C1CC1 (stereo not given) | 0.33
CC(C)c1ccc(C(N)c2cccs2)cc1 (stereo not given) | -5.3
Cc1cc(F)ccc1-n1cc(O)c(C(=O)NCC[S+](C)[O-])n1 (stereo not given) | 8.16
CC(C)(C)n1nc(C2CC2)cc1C(=O)NC1CCN(CC(N)=O)CC1 | -12.3
Cc1cc(C(=O)NC2CCN(CC(N)=O)CC2)nn1C(C)(C)C | -18.9
CC(C)c1cc(C(=O)NC2CCN(CC(N)=O)CC2)nn1C(C)(C)C | -10.3
CC(CC(=O)NCCNS(C)(=O)=O)C1CCCCC1 (stereo not given) | -13.2
Cc1ccc(C(=O)N2CCCN(C)c3ccc(F)cc32)o1 | -17.9
Cc1cc(NC(=O)C2CCCN(C(=O)NCC(C)C)C2)ccn1 (stereo not given) | -14.5
Cc1cc(F)ccc1-n1cc(O)c(C(N)=O)n1 | -19
CCNC(=O)CNC(=O)Nc1c(F)cc(F)cc1-c1ccccc1 | -9.19
CSCC(C)N(C)C(=O)c1nn(-c2ccc(F)cc2C)cc1O (stereo not given) | -10.1
Cc1ccc(C)c(OC2CCN(C(=O)CNc3ccccc3Cl)CC2)c1 | 24.6
CNC(=O)C1CCC(NC(=O)c2cc(C3CC3)n(C(C)(C)C)n2)CC1 (stereo not given) | -6.36
CN1CCN(C(=O)c2cnsn2)c2ccc(F)cc21 | -10.4
Cn1cc(C(O)CNC(=O)c2cc(Br)ccc2Cl)cn1 (stereo not given) | -14.2
c1cnc2nc(N3CCCC3c3nnc4n3CCCCC4)ccc2n1 (stereo not given) | -4.33
CC(Nc1cccc(COCc2ccco2)c1)C(=O)NC(N)=O (stereo not given) | -23
COc1ccc(Cn2ccnc2)cc1F | -10.7
CCC(=O)N(CCN(C)C)Cc1ccc(F)c(F)c1 | -13.7

Compound | cytotoxicity at 70.5 h [%]
Cc1nc2ccccc2nc1NCc1cccc(OCC2CCCO2)c1 (stereo not given) | 0.538
CN(C)C(=O)Cn1cc(C(=O)N2CCCc3cccc(F)c32)nn1 | -17.3
COc1ccccc1C1(CNc2ccnc(C(=O)N(C)C)c2)CC1 | 33.4
COc1ncnc(N)c1CNCC(C)SC (stereo not given) | 34.8
COc1ccccc1C1(CNc2cc(C(=O)N(C)C)ccn2)CC1 | 0.399
CCCc1cc(N2CCCC2Cn2cc(C)cn2)n2ncnc2n1 (stereo not given) | -8.77
COCc1nc(CNC2CCCc3c2cnn3C(C)(C)C)cs1 (stereo not given) | -6.43
CC1CCN(C)c2ccccc2N1C(=O)c1ccc(=O)n(C)n1 (stereo not given) | -5.36
COC(=O)c1ccc(N2CCC(C(O)c3ccccc3)CC2)nn1 (stereo not given) | -4.29
O=S(=O)(c1ccc2c(c1)OCCO2)N1CCC(OCc2ccccn2)C1 (stereo not given) | -8.08
O=S(=O)(c1ccc(C(F)(F)F)cc1)N1CCC(OCc2ccccn2)C1 (stereo not given) | 1.24
CC1CCN(C)c2ccccc2N1C(=O)c1ccc(=O)n(C)c1 (stereo not given) | -6.14
CCC(C)(COc1ncccc1Cl)NCC(=O)NC1CCCCC1 (stereo not given) | -14.9
CCC1C(=O)NCCN1c1ccnc(C(C)(C)C)n1 (stereo not given) | -23.9
CCC1C(=O)NCCN1c1cc(C)ncn1 (stereo not given) | -22.8
CN(CCc1ccccn1)C(=O)C(O)c1ccc(Br)cc1 (stereo not given) | -4.38
Cc1nc(NC(=O)NC(CS(C)(=O)=O)c2ccccc2)sc1C (stereo not given) | -11.5
CC(C)c1nsc(N2CCCOCC2)n1 | 37.7
CCOC(=O)c1cnn(C2CCN(C(=O)CC3CCCC3)CC2)c1N | -2.45
